Read-outs that look alike come from different tables or passages of the source. {BHQ2} = Black Hole Quencher 2; {FAM} = fluorescein
Columns and labels:
[1] = Encapsulation in catanionic SVs (gel filtration, then NMR or ICP-AES); format: physicochemical
Experimental: Vesicles were formed in the presence of several different sugars, purified by gel filtration, and the encapsulated sugar concentration measured by NMR (Table 3).
Table 6 summarizes the EE and drug concentration achieved with each of the chemotherapeutic agents under the standard SDBS-rich SVs formulation method.
The gel was flushed with two column-volumes of PBS 1×. Next, 1.0 mL of crude vesicle suspension was loaded onto the column and gravity fed into the gel. 2.0 mL of PBS 1× eluent was then added to the column and the fractions discarded. 1.5 mL of PBS 1× was then added to the column and the fractions collected to yield purified opaque light blue vesicles. The column was cleaned with 2.0 mL of 0.1% Triton X-100 in water followed by two column volumes of PBS 1×.

[2] = for Second Order Rate Constant k’: 60:40 w/w SDBS:CTAT, 1% w/w total surfactant
Experimental: To assess the rate of encapsulated substrate release, dialysis was initially considered. […] The assay was to remove aliquots from SVs-encapsulated formulations at time intervals and re-purify the aliquot by size-exclusion chromatography (SEC). Vesicle fractions elute in the initial fractions while release carbohydrate is retained on the column and elutes in the later fractions. The quantity of carbohydrate released was determined by ^1H-NMR (FIG. 28).
Using the SEC method, the initial rate of glucose release was analyzed for vesicle encapsulated glucose solutions at varying concentrations. […] Therefore, a simple model with first-order release kinetics across the vesicle membrane (Eq. 1) was used, from which the rate law (Eq. 2) can be derived, where [Sugar]in and [Sugar]out are the sugar concentrations inside and outside the vesicle, respectively.
The release for each vesicle-encapsulated sugar preparation was monitored for at least two half-lives (monosaccharides) and at least one half-life (disaccharides and maltotriose). The release profile for each substrate was then fit to Eq. 3 by a least squares method, and the first order rate constant k1 was calculated. The reported uncertainties represent the standard deviation in the measured k1 of three separate batches of vesicle-encapsulated sugar.
The t1/2 was calculated from each k1, and the permeability coefficient (P) was calculated using k1 and the vesicle size (from DLS experiments) according to: […]

[3] = Vesicle radius and PDI by DLS
Experimental: To measure the average size of the vesicles, 100 μL of the solution was taken and diluted to 1 mL with water and analyzed using dynamic light scattering (DLS).

[4] = Encapsulation in catanionic SVs (gel filtration, then NMR or ICP-AES); format: physicochemical; conditions: empty SVs incubated in 4 mM D-maltose solution for three weeks
DNase I = DNase I Protection Assay; conditions: 25° C. or 37° C., intact vesicles
Experimental: FIG. 10. […] Vesicle-incorporated fluorescently-quenched 20 bp DNA duplexes were subjected to DNase I cleavage at 25° C. (A) or 37° C. (B) before (intact) and after (broken) freeze/thaw cycles to promote vesicle rupturing. […] Variation in overall fluorescent intensity in the ruptured samples reflect the variability in vesicle rupture and reformation during the freeze/thaw process.
DNase I Protection Assay: Intact DNA duplex loaded vesicles were added to reaction buffer containing 2.5 mM magnesium chloride, 0.5 mM calcium chloride, and 1× PBS. DNase I (Thermo Fisher Scientific, Waltham, Mass.) was added to a final concentration of 0.005 U/μL and the reaction was monitored by fluorescence (excitation at 494 nm, emission 521 nm) collected on SpectraMax M5 Microplate Reader (Molecular Devices, San Jose, Calif.) over 3 h at 25° C. or 37° C. Broken vesicles were prepared by 3 freeze thaw cycles of 10 min at −80° C. and 2 min at RT. Following the freeze thaw procedure, the samples equilibrated at RT for 30 min and were used in the assay as described above.

[5] = saline at 37° C.; cited from earlier work
[6] = Conversion of carboplatin in PBS 1×; format: physicochemical; conditions: 40 mM in PBS 1×, 48 h, room temperature
[7] = Drug pKa and solubility in buffer; format: physicochemical
[8] = prepared in 500 mM sugar, PBS 1×
[9] = sugar vesicles, 500 mM sugar, PBS 1×, after 24 h
[10] = 500 mM sugar, deionized water instead of PBS 1×
[11] = 25° C., PBS 1× pH 7.4, 60:40 w/w SDBS rich vesicles, 500 mM sugar
[12] = sugar vesicles, deionized water instead of PBS 1×, after 24 h
[13] = chemotherapeutic drugs in SDBS-rich SVs, PBS 1×
[14] = drug release from catanionic SVs, PBS 1×
[15] = 250 mM cellobiose instead of 500 mM, PBS 1×
[16] = sugar vesicles, 250 mM cellobiose, PBS 1×, after 24 h
[17] = 100 mM glucosamine instead of 500 mM, PBS 1×
[18] = sugar vesicles, 100 mM glucosamine, PBS 1×, after 24 h

OC[C@H]1O[C@@](CO)(O[C@H]2O[C@H](CO)[C@@H](O)[C@H](O)[C@H]2O)[C@@H](O)[C@@H]1O [D-sucrose]
EE (%) [1, 8]: 0.86%
[Sugar], mM (in purified vesicles) [1, 8]: 3.2 ± 0.4 mM
Second Order Rate Constant k’ ([2]; 25° C., PBS 1×): 0.00186 ± 0.00011 M⁻¹ s⁻¹
fold faster leakage than maltose ([2]; second order release from SVs): 5.6 fold
Vesicle PDI [3, 9]: 0.12
Vesicle Radius (nm) [3, 9]: 82 nm

OC[C@H]1O[C@H](O[C@H]2[C@H](O)[C@@H](O)[C@H](O)O[C@@H]2CO)[C@H](O)[C@@H](O)[C@@H]1O [D-maltose]
EE (%) [1, 8]: 1.2%
[Sugar], mM (in purified vesicles) [1, 8]: 4.1 ± 0.3 mM
Second Order Rate Constant k’ ([2]; 25° C., PBS 1×): 0.000333 ± 8.3e-05 M⁻¹ s⁻¹
Second Order Rate Constant k’ ([2]; 25° C., PBS 1×, listed as Maltose): 0.000333 ± 8.3e-05 M⁻¹ s⁻¹
Vesicle PDI [3, 9]: 0.13
Vesicle Radius (nm) [3, 9]: 80 nm
EE [4]: 5%
maltose trapped by vesicles [4]: 0.2 mM

O=C[C@H](O)[C@@H](O)[C@H](O)[C@H](O)CO [D-glucose]
EE (%) [1, 10]: 0.67%
[Sugar], mM (in purified vesicles) [1, 10]: 2 ± 1 mM
EE (%) [1, 8]: 1.1%
[Sugar], mM (in purified vesicles) [1, 8]: 3.7 ± 0.8 mM
EE ([1]; vesicles prepared in 0.1 M glucose): 1.9%
First Order Rate Constant k [2, 11]: 0.12 ± 0.03 h⁻¹
First Order Rate Constant k ([2]; 25° C., in water instead of PBS 1×, 500 mM sugar): 0.12 ± 0.05 h⁻¹
slope of ln starting concentration vs ln initial release rate ([2]; vesicles prepared in 0.1, 0.2 and 0.5 M glucose): 1.1±0.2
Vesicle PDI [3, 9]: 0.17
Vesicle Radius (nm) [3, 9]: 75 nm
Vesicle PDI [3, 12]: 0.40
Vesicle Radius (nm) [3, 12]: 178 nm

O=S(=O)(O)N[C@H]1C(O)O[C@H](CO)[C@@H](O)[C@@H]1O (stereo partly drawn) [D-glucosamine-2-sulfate]
EE (%) [1, 8]: 1.0%
[Sugar], mM (in purified vesicles) [1, 8]: 3.3 ± 0.7 mM
First Order Rate Constant k [2, 11]: 0.29 ± 0.06 h⁻¹
Vesicle PDI [3, 9]: 0.06
Vesicle Radius (nm) [3, 9]: 69 nm

O=C[C@H](O)[C@@H](O)[C@@H](O)[C@H](O)CO [D-galactose]
EE (%) [1, 8]: 0.82%
[Sugar], mM (in purified vesicles) [1, 8]: 2.7 ± 0.7 mM
First Order Rate Constant k [2, 11]: 0.16 ± 0.02 h⁻¹
Vesicle PDI [3, 9]: 0.20
Vesicle Radius (nm) [3, 9]: 83 nm

O=C[C@H](O)[C@H](O)[C@H](O)CO [D-ribose]
EE (%) [1, 8]: 0.084%
[Sugar], mM (in purified vesicles) [1, 8]: 0.28 ± 0.02 mM
Vesicle PDI [3, 9]: 0.20
Vesicle Radius (nm) [3, 9]: 72 nm

N.N.[Cl][Pt][Cl] [Cisplatin, cisplatin]
EE (%) [1, 13]: 2.1%
[Drug], mM (in purified vesicles) [1, 13]: 0.05 ± 0.01 mM
First Order Rate Constant k [2, 14]: 0.78 ± 0.06 h⁻¹
Vesicle PDI ([3]; drug-loaded catanionic SVs): 0.16
Vesicle Radius (nm) ([3]; drug-loaded catanionic SVs): 76 nm

maltotriose
EE (%) [1, 8]: 0.65%
[Sugar], mM (in purified vesicles) [1, 8]: 2.2 ± 0.2 mM
Second Order Rate Constant k’ ([2]; 25° C., PBS 1×): 0.00211 ± 0.00022 M⁻¹ s⁻¹
Vesicle PDI [3, 9]: 0.13
Vesicle Radius (nm) [3, 9]: 95 nm

Nc1nc2[nH]cc(CCc3ccc(C(=O)N[C@@H](CCC(=O)O)C(=O)O)cc3)c2c(=O)[nH]1 [Pemetrexed, pemetrexed]
EE (%) [1, 13]: 0.80%
[Drug], mM (in purified vesicles) [1, 13]: 0.45 ± 0.09 mM
Half-life t1/2 [2]: 47 ± 4 h
First Order Rate Constant k [2, 14]: 0.015 ± 0.001 h⁻¹
Vesicle PDI ([3]; drug-loaded catanionic SVs): 0.17
Vesicle Radius (nm) ([3]; drug-loaded catanionic SVs): 73 nm

20 bp DNA duplexes: fluorescently-quenched 20 bp DNA duplexes (SEQ ID NO:3 and 4), vesicle-incorporated (chain 1 ACCCTACGTATCGGTCAGTC; chain 2 GACTGACCGATACGTAGGGT; chain 1: DNA, 3' {FAM}, backbone and methylation of C not given here; chain 2: DNA, 5' {BHQ2}, backbone and methylation of C not given here)
protection from DNase I cleavage, vesicle-incorporated (DNase I): protected from nuclease digestion

N.N.O=C([O-])C1(C(=O)[O-])CCC1.[Pt+2] [Carboplatin, carboplatin]
EE (%) [1, 13]: 1.9%
[Drug], mM (in purified vesicles) [1, 13]: 0.5 ± 0.1 mM
leaked out of the vesicles ([2]; at the 48 h mark): over 50%
First Order Rate Constant k [2, 14]: 0.039 ± 0.004 h⁻¹
fold slower release than cisplatin ([2]; release from SVs): 20 fold
fold slower release than glucose ([2]; release from SVs): 3 fold
Vesicle PDI ([3]; drug-loaded catanionic SVs): 0.19
Vesicle Radius (nm) ([3]; drug-loaded catanionic SVs): 74 nm
kobs of ligand exchange [5]: 7.7e-07 s⁻¹
t1/2 of ligand exchange [5]: ≈ 10 days
converted to cisplatin [6]: 2%
remained unreacted [6]: 93%
solubility (concentration in buffer) [7]: 40 mM

OC[C@H]1O[C@@H](O[C@H]2[C@H](O)[C@@H](O)[C@H](O)O[C@@H]2CO)[C@H](O)[C@@H](O)[C@@H]1O [D-cellobiose]
EE (%) [1, 15]: 1.2%
[Sugar], mM (in purified vesicles) [1, 15]: 2.0 ± 0.4 mM
Second Order Rate Constant k’ ([2]; 25° C., PBS 1×): 0.000722 ± 0.00014 M⁻¹ s⁻¹
Vesicle PDI [3, 16]: 0.15
Vesicle Radius (nm) [3, 16]: 90 nm

O=C[C@@H](O)[C@@H](O)[C@H](O)[C@H](O)CO [D-mannose]
EE (%) [1, 8]: 0.87%
[Sugar], mM (in purified vesicles) [1, 8]: 2.9 ± 0.2 mM
First Order Rate Constant k [2, 11]: 0.26 ± 0.06 h⁻¹
Vesicle PDI [3, 9]: 0.18
Vesicle Radius (nm) [3, 9]: 74 nm

COC1OC(CO)C(O)C(O)C1O [α-D-methylglucoside]
EE (%) [1, 8]: 0.17%
[Sugar], mM (in purified vesicles) [1, 8]: 0.6 ± 0.2 mM
First Order Rate Constant k [2, 11]: 3.7 ± 0.5 h⁻¹
Vesicle PDI [3, 9]: 0.19
Vesicle Radius (nm) [3, 9]: 75 nm

N[C@H]1C(O)O[C@H](CO)[C@@H](O)[C@@H]1O (stereo partly drawn) [D-glucosamine]
EE (%) [1, 17]: 3.5%
[Sugar], mM (in purified vesicles) [1, 17]: 2.3 ± 0.2 mM
First Order Rate Constant k ([2]; 25° C., PBS 1× pH 7.4, 100 mM sugar concentration): 0.11 ± 0.01 h⁻¹
Vesicle PDI [3, 18]: 0.23
Vesicle Radius (nm) [3, 18]: 78 nm

From patent US20230081679A1, “SURFACTANT VESICLES FOR VACCINE FORMULATION, TARGETED DRUG DELIVERY, AND TRANSFECTION” (University of Maryland, College Park, priority 2021, published 2023)
